{
  "source": "ChEMBL document CHEMBL4507258",
  "about": "(2021)",
  "key": {"[1]": {"target": "Adrenergic receptor alpha-1 (Homo sapiens) (UniProt P35348+P25100+P35368)", "test": "alpha1-adrenoceptor (non-selective) CEREP ligand profiling", "format": "protein assay", "conditions": "Compound concentration 10.0 uM"}, "[2]": {"target": "Beta-2 adrenergic receptor (Homo sapiens) (UniProt P07550)", "sequence (P07550 whole entry, looked up)": "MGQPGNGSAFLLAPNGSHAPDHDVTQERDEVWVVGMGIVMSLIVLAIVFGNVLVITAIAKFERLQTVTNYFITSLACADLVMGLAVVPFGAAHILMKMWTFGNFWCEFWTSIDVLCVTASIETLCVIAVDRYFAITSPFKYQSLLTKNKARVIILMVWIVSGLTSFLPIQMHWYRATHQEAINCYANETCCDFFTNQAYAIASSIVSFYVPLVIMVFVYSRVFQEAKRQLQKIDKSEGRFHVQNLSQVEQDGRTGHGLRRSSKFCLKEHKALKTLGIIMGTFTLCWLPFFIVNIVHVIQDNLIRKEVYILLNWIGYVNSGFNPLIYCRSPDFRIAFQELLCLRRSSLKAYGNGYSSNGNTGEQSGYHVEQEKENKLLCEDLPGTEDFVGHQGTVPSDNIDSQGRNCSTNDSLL", "test": "beta2-adrenoceptor (h) CEREP ligand profiling", "conditions": "Compound concentration 10.0 uM"}, "[3]": {"target": "Translocator protein (Rattus norvegicus) (UniProt P16257)", "test": "Benzodiazepine (peripheral) CEREP ligand profiling", "conditions": "Compound concentration 10.0 uM"}, "[4]": {"target": "Cannabinoid receptor 1 (Homo sapiens) (UniProt P21554)", "sequence (P21554 whole entry)": "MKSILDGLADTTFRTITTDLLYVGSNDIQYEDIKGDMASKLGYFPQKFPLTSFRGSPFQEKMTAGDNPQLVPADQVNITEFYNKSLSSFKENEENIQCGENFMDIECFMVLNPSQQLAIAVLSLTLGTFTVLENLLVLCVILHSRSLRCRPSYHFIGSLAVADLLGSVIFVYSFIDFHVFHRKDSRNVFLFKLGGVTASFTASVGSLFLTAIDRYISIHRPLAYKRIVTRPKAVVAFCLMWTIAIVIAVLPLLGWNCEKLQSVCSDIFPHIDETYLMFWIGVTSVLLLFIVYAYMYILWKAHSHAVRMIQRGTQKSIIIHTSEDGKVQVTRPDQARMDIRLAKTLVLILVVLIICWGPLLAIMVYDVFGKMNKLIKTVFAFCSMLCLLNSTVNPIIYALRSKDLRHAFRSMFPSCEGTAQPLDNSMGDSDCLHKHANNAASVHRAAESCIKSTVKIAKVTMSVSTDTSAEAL", "test": "Cannabinoid CB1 receptor (h) CEREP ligand profiling", "conditions": "Compound concentration 10.0 uM"}, "[5]": {"target": "Gastrin/cholecystokinin type B receptor (Homo sapiens) (UniProt P32239)", "sequence (P32239 whole entry)": "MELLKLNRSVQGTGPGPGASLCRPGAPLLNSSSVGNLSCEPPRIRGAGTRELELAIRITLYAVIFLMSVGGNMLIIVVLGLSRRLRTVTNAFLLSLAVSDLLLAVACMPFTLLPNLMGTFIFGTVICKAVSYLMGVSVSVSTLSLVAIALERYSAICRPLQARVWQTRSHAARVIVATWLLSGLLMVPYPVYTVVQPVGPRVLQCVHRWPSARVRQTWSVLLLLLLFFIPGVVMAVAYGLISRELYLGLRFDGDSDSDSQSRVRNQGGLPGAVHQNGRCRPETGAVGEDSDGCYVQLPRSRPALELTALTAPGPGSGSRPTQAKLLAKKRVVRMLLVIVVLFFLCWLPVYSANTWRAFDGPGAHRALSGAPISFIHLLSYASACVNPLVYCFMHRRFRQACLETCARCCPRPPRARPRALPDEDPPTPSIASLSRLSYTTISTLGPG", "test": "CholecystokininB receptor (h) CEREP ligand profiling", "conditions": "Compound concentration 10.0 uM"}, "[6]": {"target": "D(1A) dopamine receptor (Homo sapiens) (UniProt P21728)", "test": "Dopamine D1 receptor (h) CEREP ligand profiling", "conditions": "Compound concentration 10.0 uM"}, "[7]": {"target": "T1, D(4) dopamine receptor (Homo sapiens) (UniProt P21917)", "T1 sequence (whole entry)": "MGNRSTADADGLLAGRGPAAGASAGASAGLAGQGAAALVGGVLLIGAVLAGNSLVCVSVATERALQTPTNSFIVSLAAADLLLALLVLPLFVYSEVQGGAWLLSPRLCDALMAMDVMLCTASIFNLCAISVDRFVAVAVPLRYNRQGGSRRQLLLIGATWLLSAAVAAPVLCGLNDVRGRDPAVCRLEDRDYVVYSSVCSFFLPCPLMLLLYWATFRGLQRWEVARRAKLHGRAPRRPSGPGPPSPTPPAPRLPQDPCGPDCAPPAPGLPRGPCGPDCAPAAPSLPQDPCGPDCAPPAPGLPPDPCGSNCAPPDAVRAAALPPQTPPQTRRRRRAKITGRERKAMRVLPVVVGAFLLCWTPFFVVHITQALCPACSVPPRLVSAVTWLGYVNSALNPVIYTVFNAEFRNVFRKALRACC", "test": "Dopamine D4 receptor (h) CEREP ligand profiling", "conditions": "Compound concentration 10.0 uM"}, "[8]": {"target": "D(1B) dopamine receptor (Homo sapiens) (UniProt P21918)", "sequence (P21918 whole entry)": "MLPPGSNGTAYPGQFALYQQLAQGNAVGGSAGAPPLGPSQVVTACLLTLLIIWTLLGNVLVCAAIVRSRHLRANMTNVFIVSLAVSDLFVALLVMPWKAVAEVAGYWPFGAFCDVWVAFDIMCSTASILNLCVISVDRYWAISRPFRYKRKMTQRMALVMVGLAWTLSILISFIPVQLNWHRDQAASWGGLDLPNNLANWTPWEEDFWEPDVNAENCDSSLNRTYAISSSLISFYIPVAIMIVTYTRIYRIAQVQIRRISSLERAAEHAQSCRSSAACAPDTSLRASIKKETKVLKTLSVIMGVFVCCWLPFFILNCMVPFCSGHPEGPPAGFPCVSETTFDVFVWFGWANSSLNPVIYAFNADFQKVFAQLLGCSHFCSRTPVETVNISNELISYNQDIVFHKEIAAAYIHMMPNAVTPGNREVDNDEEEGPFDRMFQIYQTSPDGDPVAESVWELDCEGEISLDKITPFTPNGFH", "test": "Dopamine D5 receptor (h) CEREP ligand profiling", "conditions": "Compound concentration 10.0 uM"}, "[9]": {"target": "Sodium-dependent dopamine transporter (Homo sapiens) (UniProt Q01959)", "test": "Dopamine uptake (h) CEREP ligand profiling", "conditions": "Compound concentration 10.0 uM"}, "[10]": {"test": "GABA receptor (non-selective) CEREP ligand profiling", "conditions": "Compound concentration 10.0 uM"}, "[11]": {"target": "Platelet-derived growth factor receptor (Homo sapiens) (UniProt P09619+P16234)", "test": "Platlet-derived growth factor receptor CEREP ligand profiling", "format": "protein-complex assay", "conditions": "Compound concentration 10.0 uM"}, "[12]": {"target": "Histamine H2 receptor (Homo sapiens) (UniProt P25021)", "sequence (P25021 whole entry)": "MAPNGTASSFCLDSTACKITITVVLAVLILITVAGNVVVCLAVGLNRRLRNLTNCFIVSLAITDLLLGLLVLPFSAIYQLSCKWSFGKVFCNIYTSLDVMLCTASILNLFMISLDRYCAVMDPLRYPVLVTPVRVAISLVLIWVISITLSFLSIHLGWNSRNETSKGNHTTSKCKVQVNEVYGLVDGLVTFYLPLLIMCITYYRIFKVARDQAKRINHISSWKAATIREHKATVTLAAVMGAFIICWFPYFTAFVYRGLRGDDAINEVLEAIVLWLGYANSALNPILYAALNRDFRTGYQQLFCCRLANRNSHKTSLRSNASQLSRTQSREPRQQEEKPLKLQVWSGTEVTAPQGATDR", "test": "Histamine H2 receptor CEREP ligand profiling", "conditions": "Compound concentration 10.0 uM"}, "[13]": {"target": "Melatonin receptor type 1A (Homo sapiens) (UniProt P48039)", "test": "Melatonin ML1 receptor CEREP ligand profiling", "conditions": "Compound concentration 10.0 uM"}, "[14]": {"target": "Muscarinic acetylcholine receptor M1 (Homo sapiens) (UniProt P11229)", "sequence (P11229 whole entry)": "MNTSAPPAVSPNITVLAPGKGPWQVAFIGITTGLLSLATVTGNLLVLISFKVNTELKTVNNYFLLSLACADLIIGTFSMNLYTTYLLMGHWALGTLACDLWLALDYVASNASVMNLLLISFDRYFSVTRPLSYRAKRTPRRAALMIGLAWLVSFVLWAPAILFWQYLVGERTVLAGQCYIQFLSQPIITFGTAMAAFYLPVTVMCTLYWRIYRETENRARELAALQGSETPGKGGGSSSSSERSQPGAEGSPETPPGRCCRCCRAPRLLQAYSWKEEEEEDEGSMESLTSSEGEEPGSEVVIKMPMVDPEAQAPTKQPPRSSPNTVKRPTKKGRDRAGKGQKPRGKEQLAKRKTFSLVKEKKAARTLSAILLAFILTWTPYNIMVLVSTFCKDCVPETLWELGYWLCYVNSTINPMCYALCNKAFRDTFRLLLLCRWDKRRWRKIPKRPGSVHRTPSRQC", "test": "Muscarinic M1 receptors (h) CEREP ligand profiling", "conditions": "Compound concentration 10.0 uM"}, "[15]": {"target": "Substance-K receptor (Homo sapiens) (UniProt P21452)", "test": "Neurokinin A receptor (h) CEREP ligand profiling", "conditions": "Compound concentration 10.0 uM"}, "[16]": {"target": "Delta-type opioid receptor (Homo sapiens) (UniProt P41143)", "test": "delta-Opioid receptor (h) CEREP ligand profiling", "conditions": "Compound concentration 10.0 uM"}, "[17]": {"target": "5-hydroxytryptamine receptor 6 (Homo sapiens) (UniProt P50406)", "sequence (P50406 whole entry)": "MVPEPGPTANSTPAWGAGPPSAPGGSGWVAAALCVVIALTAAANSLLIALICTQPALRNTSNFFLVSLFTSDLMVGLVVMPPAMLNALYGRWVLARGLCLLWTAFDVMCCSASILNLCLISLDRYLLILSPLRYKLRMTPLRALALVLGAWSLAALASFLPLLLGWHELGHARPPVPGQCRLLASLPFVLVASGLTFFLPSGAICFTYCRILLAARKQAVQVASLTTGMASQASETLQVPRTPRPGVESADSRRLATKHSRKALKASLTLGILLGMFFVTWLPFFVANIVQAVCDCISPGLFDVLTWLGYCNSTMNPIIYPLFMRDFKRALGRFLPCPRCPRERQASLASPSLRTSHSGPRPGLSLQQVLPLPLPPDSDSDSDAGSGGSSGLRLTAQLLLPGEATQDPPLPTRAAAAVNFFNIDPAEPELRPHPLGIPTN", "test": "5-Hydroxytryptamine6 (h) CEREP ligand profiling", "conditions": "Compound concentration 10.0 uM"}, "[18]": {"target": "Vasoactive intestinal peptide receptor (Homo sapiens) (UniProt P41587+P32241+P41586)", "sequence (P32241 whole entry, looked up)": "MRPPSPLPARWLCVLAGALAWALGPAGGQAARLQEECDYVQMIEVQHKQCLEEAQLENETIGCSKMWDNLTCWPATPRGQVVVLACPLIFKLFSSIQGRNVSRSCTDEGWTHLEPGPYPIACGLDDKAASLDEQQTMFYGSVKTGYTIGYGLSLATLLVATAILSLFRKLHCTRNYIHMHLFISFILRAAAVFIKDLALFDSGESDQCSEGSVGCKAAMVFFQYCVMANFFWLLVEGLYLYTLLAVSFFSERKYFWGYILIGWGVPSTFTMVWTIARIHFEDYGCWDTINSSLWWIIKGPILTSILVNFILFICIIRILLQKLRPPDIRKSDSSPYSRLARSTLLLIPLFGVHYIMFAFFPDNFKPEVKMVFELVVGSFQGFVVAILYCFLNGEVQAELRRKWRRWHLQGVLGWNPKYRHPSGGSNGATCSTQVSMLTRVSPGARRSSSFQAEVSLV", "sequence (P41586 whole entry, looked up)": "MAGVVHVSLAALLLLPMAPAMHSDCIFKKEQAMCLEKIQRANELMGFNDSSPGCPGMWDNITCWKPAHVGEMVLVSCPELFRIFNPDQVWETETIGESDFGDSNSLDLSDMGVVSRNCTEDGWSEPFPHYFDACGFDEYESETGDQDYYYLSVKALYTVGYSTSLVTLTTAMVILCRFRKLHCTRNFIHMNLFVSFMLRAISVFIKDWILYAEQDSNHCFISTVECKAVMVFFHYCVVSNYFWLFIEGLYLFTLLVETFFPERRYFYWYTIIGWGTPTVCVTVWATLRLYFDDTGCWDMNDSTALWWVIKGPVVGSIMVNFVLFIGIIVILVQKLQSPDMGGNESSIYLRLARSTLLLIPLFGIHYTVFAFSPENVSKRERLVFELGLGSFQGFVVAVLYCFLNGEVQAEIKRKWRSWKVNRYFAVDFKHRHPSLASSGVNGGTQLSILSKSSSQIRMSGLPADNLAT", "sequence (P41587 whole entry, looked up)": "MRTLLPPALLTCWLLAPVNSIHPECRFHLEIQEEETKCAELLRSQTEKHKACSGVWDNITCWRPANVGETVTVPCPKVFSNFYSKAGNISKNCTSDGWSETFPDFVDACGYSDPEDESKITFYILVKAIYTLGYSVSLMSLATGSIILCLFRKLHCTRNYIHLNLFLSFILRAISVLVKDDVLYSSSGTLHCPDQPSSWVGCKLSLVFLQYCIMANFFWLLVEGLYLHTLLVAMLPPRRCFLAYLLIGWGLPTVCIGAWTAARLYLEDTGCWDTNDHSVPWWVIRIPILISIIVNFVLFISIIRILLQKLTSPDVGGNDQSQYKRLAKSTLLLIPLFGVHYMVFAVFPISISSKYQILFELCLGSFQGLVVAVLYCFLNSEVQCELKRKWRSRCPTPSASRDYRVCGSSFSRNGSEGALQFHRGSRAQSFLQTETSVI", "test": "Vasoactive intestinal peptide receptor CEREP ligand profiling", "format": "protein assay", "conditions": "Compound concentration 10.0 uM"}, "[19]": {"target": "Vasopressin V2 receptor (Homo sapiens) (UniProt P30518)", "test": "Vasopresine V2 receptor CEREP ligand profiling", "conditions": "Compound concentration 10.0 uM"}, "[20]": {"target": "Alpha-2B adrenergic receptor (Homo sapiens, UniProt P18089)", "sequence (P18089 whole entry)": "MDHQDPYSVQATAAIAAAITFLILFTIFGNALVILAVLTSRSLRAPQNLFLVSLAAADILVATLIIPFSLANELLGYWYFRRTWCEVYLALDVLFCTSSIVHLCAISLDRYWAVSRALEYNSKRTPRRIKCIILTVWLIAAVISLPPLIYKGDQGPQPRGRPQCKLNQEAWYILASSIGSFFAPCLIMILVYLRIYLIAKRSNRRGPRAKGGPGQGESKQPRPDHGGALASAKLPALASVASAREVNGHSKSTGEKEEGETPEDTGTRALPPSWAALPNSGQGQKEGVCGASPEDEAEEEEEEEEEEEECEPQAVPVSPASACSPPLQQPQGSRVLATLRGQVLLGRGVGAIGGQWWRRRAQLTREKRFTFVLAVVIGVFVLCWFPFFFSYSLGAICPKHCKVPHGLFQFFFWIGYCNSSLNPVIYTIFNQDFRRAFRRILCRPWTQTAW", "test": "GPCRScan assay: inhibition of Alpha2B", "parameters": "radioligand conc. used [nm] 1.5 – 2.0, parental cells HEKT"}, "[21]": {"target": "Alpha-2C adrenergic receptor (Homo sapiens) (UniProt P18825)", "conditions": "Compound concentration 10.0 uM"}, "[22]": {"target": "Muscarinic acetylcholine receptor M1 (Homo sapiens) (UniProt P11229)", "conditions": "Compound concentration 10.0 uM"}},
  "data": [
    {"smiles": "CCCCN(CCCC)C(=O)CN1C[C@H](c2cc(OC)c3c(c2)OCO3)[C@@H](C(=O)O)[C@@H]1CC(C)(C)CCC", "note": "[ABT-546]", "values": [
      {"measurement": "inhibition", "setting": "[1]", "result": "< 10", "unit": "%"},
      {"measurement": "inhibition", "setting": "[2]", "result": "< 10", "unit": "%"},
      {"measurement": "inhibition", "setting": "[3]", "result": "< 10", "unit": "%"},
      {"measurement": "inhibition", "setting": "[4]", "result": "< 10", "unit": "%"},
      {"measurement": "inhibition", "setting": "[5]", "result": "< 10", "unit": "%"},
      {"measurement": "inhibition", "setting": "[6]", "result": 14, "unit": "%"},
      {"measurement": "inhibition", "setting": "[7]", "result": "< 10", "unit": "%"},
      {"measurement": "inhibition", "setting": "[8]", "result": "< 10", "unit": "%"},
      {"measurement": "inhibition", "setting": "[9]", "result": "< 10", "unit": "%"},
      {"measurement": "inhibition", "setting": "[10]", "result": "< 10", "unit": "%"},
      {"measurement": "inhibition", "setting": "[11]", "result": "< 10", "unit": "%"},
      {"measurement": "inhibition", "setting": "[12]", "result": "< 10", "unit": "%"},
      {"measurement": "inhibition", "setting": "[13]", "result": 12, "unit": "%"},
      {"measurement": "inhibition", "setting": "[14]", "result": "< 10", "unit": "%"},
      {"measurement": "inhibition", "setting": "[15]", "result": "< 10", "unit": "%"},
      {"measurement": "inhibition", "setting": "[16]", "result": 62, "unit": "%"},
      {"measurement": "inhibition", "setting": "[17]", "result": "< 10", "unit": "%"},
      {"measurement": "inhibition", "setting": "[18]", "result": "< 10", "unit": "%"},
      {"measurement": "inhibition", "setting": "[19]", "result": "< 10", "unit": "%"}
    ]},
    {"smiles": "CCCCN(CCCC)C(=O)CN1C[C@@H](c2cc(OC)c3c(c2)OCO3)[C@H](C(=O)O)[C@H]1CC(C)(C)CCC", "note": "[A-545]", "values": [
      {"measurement": "Ki", "setting": "[20]; read-out: Ki", "result": 4.64, "unit": "µM"},
      {"measurement": "Ki", "setting": "[20]; read-out: pKi (converted)", "result": 4.17, "unit": "µM"},
      {"measurement": "inhibition", "setting": "[21]", "result": 56.1, "unit": "%"},
      {"measurement": "inhibition", "setting": "[22]", "result": 12.4, "unit": "%"}
    ]}
  ]
}
